Laboratory results from ChEMBL document CHEMBL1201862, “PubChem BioAssay data set” (2004).
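In this assay, cells in 96-well plates receive the compound at five concentrations for 48 hours. Endpoints are linearly interpolated between the surrounding concentrations. GI50: concentration for 50% inhibition of growth.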 Activity calls are given as the source filed them. Cut-off read from the data, not from the text of the source: active = GI50 up to about 1.1 µM and inactive = higher.

Key:
Test in all cases: NCI-60 cell line screen, 48 h
CCRF-CEM = tested on: CCRF-CEM
KM12 = tested on: KM12
SK-MEL-28 = tested on: SK-MEL-28
SF-268 = tested on: SF-268
SNB-75 = tested on: SNB-75
SK-MEL-5 = tested on: SK-MEL-5
UO-31 = tested on: UO-31
786-0 = tested on: 786-0
TK-10 = tested on: TK-10
A549 = tested on: A549
SN12C = tested on: SN12C
UACC-62 = tested on: UACC-62
OVCAR-5 = tested on: OVCAR-5
SW-620 = tested on: SW-620
SF-295 = tested on: SF-295
MDA-N = tested on: MDA-N
MCF7 = tested on: MCF7
DU-145 = tested on: DU-145
PC-3 = tested on: PC-3
HOP-62 = tested on: HOP-62
SK-OV-3 = tested on: SK-OV-3
MDA-MB-231 = tested on: MDA-MB-231
RXF 393 = tested on: RXF 393
T47D = tested on: T47D
SK-MEL-2 = tested on: SK-MEL-2
SNB-19 = tested on: SNB-19
Hs-578T = tested on: Hs-578T
K562 = tested on: K562
HCT-116 = tested on: HCT-116
A498 = tested on: A498
MDA-MB-435 = tested on: MDA-MB-435
U-251 = tested on: U-251
M14 = tested on: M14
EKVX = tested on: EKVX
NCI-H522 = tested on: NCI-H522
HT-29 = tested on: HT-29
NCI-H23 = tested on: NCI-H23
MOLT-4 = tested on: MOLT-4
CAKI-1 = tested on: CAKI-1
UACC-257 = tested on: UACC-257
COLO 205 = tested on: COLO 205
OVCAR-8 = tested on: OVCAR-8
RPMI-8226 = tested on: RPMI-8226
LOX IMVI = tested on: LOX IMVI
IGROV-1 = tested on: IGROV-1
HL-60 = tested on: HL-60
SF-539 = tested on: SF-539
Malme-3M = tested on: Malme-3M
NCI/ADR-RES = tested on: NCI/ADR-RES
ACHN = tested on: ACHN
SR = tested on: SR
BT-549 = tested on: BT-549
HCT-15 = tested on: HCT-15
NCI-H226 = tested on: NCI-H226
HCC 2998 = tested on: HCC 2998
OVCAR-4 = tested on: OVCAR-4
HOP-92 = tested on: HOP-92
NCI-H460 = tested on: NCI-H460
OVCAR-3 = tested on: OVCAR-3

SMILES: CC1(C)OC2C(=O)C=C(COCc3ccccc3)C2O1 (stereo unspecified)
- GI50 (CCRF-CEM): 21 µM (inactive)
- GI50 (KM12): 21.5 µM (inactive)
- GI50 (SK-MEL-28): 30 µM (inactive)
- GI50 (SF-268): 25.4 µM (inactive)
- GI50 (SNB-75): > 10 µM (inactive)
- GI50 (SK-MEL-5): 13.1 µM (inactive)
- GI50 (UO-31): 21.9 µM (inactive)
- GI50 (786-0): 42.8 µM (inactive)
- GI50 (TK-10): 28.2 µM (inactive)
- GI50 (A549): > 100 µM (inactive)
- GI50 (SN12C): 28 µM (inactive)
- GI50 (UACC-62): 12.3 µM (inactive)
- GI50 (OVCAR-5): 31.1 µM (inactive)
- GI50 (SW-620): 23.6 µM (inactive)
- GI50 (SF-295): 35.2 µM (inactive)
- GI50 (MDA-N): 34.8 µM (inactive)
- GI50 (MCF7): 34 µM (inactive)
- GI50 (DU-145): 44.6 µM (inactive)
- GI50 (PC-3): 23.9 µM (inactive)
- GI50 (HOP-62): 26.4 µM (inactive)
- GI50 (SK-OV-3): 9.44 µM (inactive)
- GI50 (MDA-MB-231): 27.4 µM (inactive)
- GI50 (RXF 393): 15.5 µM (inactive)
- GI50 (T47D): 23 µM (inactive)
- GI50 (SK-MEL-2): 38.9 µM (inactive)
- GI50 (SNB-19): 47.2 µM (inactive)
- GI50 (Hs-578T): 27 µM (inactive)
- GI50 (K562): 23.6 µM (inactive)
- GI50 (HCT-116): 23.6 µM (inactive)
- GI50 (A498): 56.6 µM (inactive)
- GI50 (MDA-MB-435): 25.2 µM (inactive)
- GI50 (U-251): 29.2 µM (inactive)
- GI50 (M14): 26.3 µM (inactive)
- GI50 (EKVX): 37.5 µM (inactive)
- GI50 (NCI-H522): 16.5 µM (inactive)
- GI50 (HT-29): 33 µM (inactive)
- GI50 (NCI-H23): 19.2 µM (inactive)
- GI50 (MOLT-4): 28.4 µM (inactive)
- GI50 (CAKI-1): 35.3 µM (inactive)
- GI50 (UACC-257): 35.5 µM (inactive)
- GI50 (COLO 205): 20.5 µM (inactive)
- GI50 (OVCAR-8): 34.2 µM (inactive)
- GI50 (RPMI-8226): 24.8 µM (inactive)
- GI50 (LOX IMVI): 25.6 µM (inactive)
- GI50 (IGROV-1): 19.8 µM (inactive)
- GI50 (HL-60): 11.2 µM (inactive)
- GI50 (SF-539): 30 µM (inactive)
- GI50 (Malme-3M): 19 µM (inactive)
- GI50 (NCI/ADR-RES): 37.2 µM (inactive)
- GI50 (ACHN): 31.6 µM (inactive)
- GI50 (SR): 35.1 µM (inactive)
- GI50 (BT-549): 15.6 µM (inactive)
- GI50 (HCT-15): 35.2 µM
- GI50 (NCI-H226): 22.9 µM (inactive)

SMILES: c1ccc(/C(=N/Nc2nc3ccccc3s2)C2CCCCC2)nc1
- GI50 (CCRF-CEM): 1.98 µM (inactive)
- GI50 (KM12): 10 µM (inactive)
- GI50 (SK-MEL-28): 10.4 µM (inactive)
- GI50 (SF-268): 10.6 µM (inactive)
- GI50 (SK-MEL-5): 6.24 µM (inactive)
- GI50 (UO-31): 3.04 µM (inactive)
- GI50 (786-0): 7.29 µM (inactive)
- GI50 (TK-10): 2.47 µM (inactive)
- GI50 (A549): 16.9 µM (inactive)
- GI50 (SN12C): 9.44 µM (inactive)
- GI50 (UACC-62): 12.8 µM (inactive)
- GI50 (OVCAR-5): 3.26 µM (inactive)
- GI50 (SW-620): 5.21 µM (inactive)
- GI50 (SF-295): 15.8 µM (inactive)
- GI50 (MDA-N): 14.4 µM (inactive)
- GI50 (MCF7): 1.23 µM (inactive)
- GI50 (HCC 2998): < 0.01 µM (active)
- GI50 (DU-145): 12.6 µM (inactive)
- GI50 (PC-3): 6.11 µM (inactive)
- GI50 (HOP-62): 9.46 µM (inactive)
- GI50 (OVCAR-4): 9.79 µM (inactive)
- GI50 (SK-OV-3): 4.67 µM (inactive)
- GI50 (MDA-MB-231): 11.3 µM (inactive)
- GI50 (RXF 393): 11.7 µM (inactive)
- GI50 (T47D): 0.299 µM (active)
- GI50 (HOP-92): 7.48 µM (inactive)
- GI50 (SK-MEL-2): 15.7 µM (inactive)
- GI50 (SNB-19): 13.2 µM (inactive)
- GI50 (Hs-578T): 19.6 µM (inactive)
- GI50 (K562): 7.05 µM (inactive)
- GI50 (HCT-116): 0.296 µM (active)
- GI50 (A498): 16.6 µM (inactive)
- GI50 (MDA-MB-435): 14.8 µM (inactive)
- GI50 (U-251): 11.3 µM (inactive)
- GI50 (M14): 10.3 µM (inactive)
- GI50 (EKVX): 11.9 µM (inactive)
- GI50 (NCI-H522): 2.76 µM (inactive)
- GI50 (HT-29): 0.569 µM (active)
- GI50 (NCI-H23): 6.4 µM (inactive)
- GI50 (MOLT-4): 0.203 µM (active)
- GI50 (NCI-H460): 7.83 µM (inactive)
- GI50 (CAKI-1): 6.95 µM (inactive)
- GI50 (UACC-257): 4.32 µM (inactive)
- GI50 (COLO 205): 1.57 µM (inactive)
- GI50 (OVCAR-8): 4.16 µM (inactive)
- GI50 (OVCAR-3): 2.92 µM (inactive)
- GI50 (RPMI-8226): 3.94 µM (inactive)
- GI50 (LOX IMVI): 13.6 µM (inactive)
- GI50 (IGROV-1): 4.43 µM (inactive)
- GI50 (SF-539): 13.8 µM (inactive)
- GI50 (Malme-3M): 4.13 µM (inactive)
- GI50 (NCI/ADR-RES): 2.58 µM (inactive)
- GI50 (ACHN): 6.58 µM (inactive)
- GI50 (SR): 3.88 µM (inactive)
- GI50 (BT-549): 18.6 µM (inactive)
- GI50 (HCT-15): 2.77 µM
- GI50 (NCI-H226): 10 µM (inactive)
